Data as given in patent US20190315711A1 (eXIthera Pharmaceuticals, Inc., priority 2016, published 2019).
In brackets after ≈: the same amount, converted by molar mass.

How the values were obtained:
human Factor XIa = human Factor XIa (Homo sapiens, UniProt P03951); assay: Factor XIa enzyme inhibition assay (dose response, fluorogenic AMC substrate); assay type: biochemical; set-up: Enzyme: Factor XIa; conditions: purified enzyme; substrate 50 μM, enzyme 0.25 nM; read-out: hFXIa IC50
In short: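 Fluorogenic assay in 20 mM Hepes pH 7.4, 150 mM NaCl, 0.02% Tween 20 with 0.25 nM enzyme and 50 μM Glp-Pro-Arg-AMC (final). Fluorescence read every minute for 30 min at 30 °C after serial two-fold compound dilution; IC50 from four-parameter Hill fit of dose-response curves.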

[1] = Aqueous solubility in PBS pH 7.4; assay type: physicochemical; conditions: phosphate buffered saline, aqueous buffer, kinetic from dmso stock, PBS pH 7.4, room temperature
Experimental: The following procedure was used to determine the aqueous solubility of a test compound in phosphate buffered saline (PBS—NaCl 137 mM, KCl 2.7 mM, Na2HPO4 8.1 mM, KH2PO4 1.5 mM, pH 7.4) in 96-well plate format by HPLC-UV/VIS analysis. The test compound was prepared at 200 μM in PBS from a 10 mM DMSO stock solution. The final DMSO concentration was 2%. The PBS buffer samples were mixed thoroughly followed by incubation at room temperature for 24 h. At the end of the incubation, the PBS buffer samples were centrifuged and supernatants analyzed by HPLC. The aqueous solubility (μM) of the test compound in PBS was determined by comparing the peak area of the principal peak in the calibration standard (200 μM) with the peak area of the corresponding peak in each of the PBS samples. The range of the assay was approximately 0.5 μM to 200 μM. The reference compounds used in each assay were metoprolol, rifampicin, ketoconazole, phenytoin, haloperidol, simvastatin, diethylstilbestrol, and tamoxifen ranking from fully soluble (200 μM) to poorly soluble (<1 μM).

[2] = Metabolic stability in dog hepatocytes; assay type: in vitro ADME; conditions: pooled cryopreserved hepatocytes; beagle dog hepatocytes, 2 μM compound, 500,000 cells/mL, 37° C.; read-out: Dog Hepatocyte Stability (T½: min)
Experimental: The following procedure was used to determine the stability of test compounds in beagle dog hepatocytes in a 96-well plate format. The test compounds, including the controls, imipramine and 7-ethoxycoumarin, were dissolved at 10 mM in DMSO, followed by further 5-fold dilution with DMSO to 2 mM. Pooled cryopreserved beagle dog hepatocytes were thawed and transferred into complete medium. Cells were gently centrifuged (700 rpm for 5 min) and the pellet rinsed with KHB (Krebs Henseleit buffer). Cells were resuspended, counted using Trypan blue, and adjusted to 1 million cells/mL in KHB buffer. The 2 mM compound stock solutions were diluted 10-fold with acetonitrile, followed by a further 50-fold dilution with KHB buffer. 200 μL of these compound solutions were transferred to 96-well polypropylene assay plates and an equal volume of the hepatocyte solution was added and mixed to initiate the reaction (final assay concentrations were 2 μM compound and 500,000 cells/mL). Assay plates were incubated at 37° C. in 5% CO2 with gentle agitation. 50 μL aliquots were removed at multiple time points out to 180 minutes and quenched with 6 volumes of cold acetonitrile (containing 250 ng/mL of carbutamide and chrysin as internal standards) to terminate the reaction and precipitate protein. Quenched samples were maintained on ice. The quenched samples were centrifuged at 2000×g (3100 rpm) for 10 minutes at 4° C. 50 μL aliquots of the supernatants were removed and diluted with 100 μL Milli-Q water to reduce the % organic content prior to bioanalysis by LC-MS/MS. Peak areas corresponding to the test compound were recorded. The compound remaining was calculated by comparing the peak area at each time point to time zero. Data were analyzed and results were calculated using Microsoft Excel 2010.

Sequence of human Factor XIa (P03951 388-625 limits assumed): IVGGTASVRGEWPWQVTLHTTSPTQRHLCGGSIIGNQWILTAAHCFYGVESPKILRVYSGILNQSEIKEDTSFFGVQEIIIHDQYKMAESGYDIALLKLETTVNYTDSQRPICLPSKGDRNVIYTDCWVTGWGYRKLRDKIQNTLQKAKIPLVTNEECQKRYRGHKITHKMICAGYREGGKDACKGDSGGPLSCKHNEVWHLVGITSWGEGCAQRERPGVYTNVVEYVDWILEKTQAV
Sequence of human Factor XIa (P03951 19-387 partner limits assumed): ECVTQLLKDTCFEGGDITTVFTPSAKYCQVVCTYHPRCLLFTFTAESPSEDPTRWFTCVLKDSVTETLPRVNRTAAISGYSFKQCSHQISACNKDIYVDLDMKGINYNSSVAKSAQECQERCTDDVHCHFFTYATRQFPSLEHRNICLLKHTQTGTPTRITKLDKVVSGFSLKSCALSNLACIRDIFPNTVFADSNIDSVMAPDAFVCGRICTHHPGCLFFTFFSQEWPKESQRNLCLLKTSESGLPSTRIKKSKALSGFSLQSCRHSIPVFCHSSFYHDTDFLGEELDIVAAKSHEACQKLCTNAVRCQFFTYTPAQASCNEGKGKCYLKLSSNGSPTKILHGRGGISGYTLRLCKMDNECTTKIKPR

SMILES | IC50 (human Factor XIa) | solubility at 24 h [1] | half-life at 2 μM [2]
Cc1ccccc1N(C)C(=O)[C@@H]1[C@@H](Cc2ccnc(N)c2)C(=O)N1C(=O)N[C@@H](C1CCCCC1)C(F)(F)F [Compound 15] | 10 to 100 nM | 10 to 100 µM (≈ 5.32 to 53.2 µg/mL) | 
CN(C(=O)[C@@H]1[C@@H](Cc2ccnc(N)c2)C(=O)N1C(=O)N[C@@H](C1CCCCC1)C(F)(F)F)c1cccnc1 [Compound 17] | 10 to 100 nM | > 100 µM | 
CN(C(=O)[C@@H]1[C@@H](Cc2ccnc(N)c2)C(=O)N1C(=O)N[C@@H](C1CCCCC1)C(F)(F)F)c1ccncc1 [Compound 18] | < 10 nM | > 100 µM | 
CN(C(=O)[C@@H]1[C@@H](Cc2ccnc(N)c2)C(=O)N1C(=O)N[C@@H](C1CCCCC1)C(F)(F)F)c1cncnc1 [Compound 19] | < 10 nM | > 100 µM | 
CN(C(=O)[C@@H]1[C@@H](Cc2ccnc(N)c2)C(=O)N1C(=O)N[C@@H](C1CCCCC1)C(F)(F)F)c1ncccn1 [Compound 21] | < 10 nM | > 100 µM | < 1 h
CN(C(=O)[C@@H]1[C@@H](Cc2ccnc(N)c2)C(=O)N1C(=O)N[C@@H](C1CCCCC1)C(F)(F)F)c1cccc(F)c1 [Compound 22] | < 10 nM | 10 to 100 µM (≈ 5.36 to 53.6 µg/mL) | 
CCN(C(=O)[C@@H]1[C@@H](Cc2ccnc(N)c2)C(=O)N1C(=O)N[C@@H](C1CCCCC1)C(F)(F)F)c1ccccc1 [Compound 24] | 10 to 100 nM | 10 to 100 µM (≈ 5.32 to 53.2 µg/mL) | 
CC[C@@H](NC(=O)N1C(=O)[C@H](Cc2ccnc(N)c2)[C@H]1C(=O)N(C)c1ccncc1)C1CCCCC1 [Compound 25] | < 10 nM | > 100 µM | 2.02 to 4 h
CC[C@@H](NC(=O)N1C(=O)[C@H](Cc2ccnc(N)c2)[C@H]1C(=O)N(C)c1ccccc1)C1CCCCC1 [Compound 27] | < 10 nM | > 100 µM | 2.02 to 4 h
CN(C(=O)[C@@H]1[C@@H](Cc2ccnc(N)c2)C(=O)N1C(=O)N[C@@H](C1CCCCC1)C1CC1)c1ccccc1 [Compound 36] | < 10 nM | > 100 µM | < 1 h
CC[C@@H](NC(=O)N1C(=O)[C@H](Cc2ccnc(N)c2)[C@H]1C(=O)N(CC)c1ncccn1)C1CCCCC1 [Compound 39] | < 10 nM |  | < 1 h
CC[C@@H](NC(=O)N1C(=O)[C@H](Cc2ccnc(N)c2)[C@H]1C(=O)N(C)c1ccncc1)c1ccccc1 [Compound 42] | < 10 nM | > 100 µM | 2.02 to 4 h
CC[C@@H](NC(=O)N1C(=O)[C@H](Cc2ccnc(N)c2)[C@H]1C(=O)N(C)c1ccccc1)c1cccnc1 [Compound 44] | < 10 nM | > 100 µM | 2.02 to 4 h
CC[C@@H](NC(=O)N1C(=O)[C@H](Cc2ccnc(N)c2)[C@H]1C(=O)N(C)c1ccccc1)C1CC1 [Compound 46] | 10 to 100 nM | > 100 µM | 
C[C@@H](NC(=O)N1C(=O)[C@H](Cc2ccnc(N)c2)[C@H]1C(=O)N(C)c1ccccc1)C1CCCCC1 [Compound 49] | < 10 nM | > 100 µM | < 1 h
CCC[C@@H](NC(=O)N1C(=O)[C@H](Cc2ccnc(N)c2)[C@H]1C(=O)N(C)c1ccccc1)C1CCCCC1 [Compound 50] | < 10 nM | > 100 µM | 1.02 to 2 h

SMILES | IC50 (human Factor XIa) | solubility at 24 h [1] | half-life at 2 μM [2]
CN(C(=O)[C@@H]1[C@@H](Cc2ccnc(N)c2)C(=O)N1C(=O)N[C@@H](C1CCCCC1)C1CC1)c1ccncc1 [Compound 52] | < 10 nM | > 100 µM | < 1 h
CC[C@@H](NC(=O)N1C(=O)[C@H](Cc2ccnc(N)c2)[C@H]1C(=O)N(C)c1ccncc1)c1cccnc1 [Compound 59] | < 10 nM | > 100 µM | > 4 h
CC[C@@H](NC(=O)N1C(=O)[C@H](Cc2ccnc(N)c2)[C@H]1C(=O)N(C)c1ncccn1)c1cccnc1 [Compound 61] | < 10 nM | > 100 µM | 2.02 to 4 h
CN(C(=O)[C@@H]1[C@@H](Cc2ccnc(N)c2)C(=O)N1C(=O)N[C@@H](C1CC1)C(F)(F)F)c1ccncc1 [Compound 77] | 10 to 100 nM | > 100 µM | 2.02 to 4 h
CN(C(=O)[C@@H]1[C@@H](Cc2ccnc(N)c2)C(=O)N1C(=O)N[C@@H](C1CC1)C(F)(F)F)c1ncccn1 [Compound 78] | 10 to 100 nM | > 100 µM | < 1 h
CC[C@@H](NC(=O)N1C(=O)[C@H](Cc2ccnc(NC)c2)[C@H]1C(=O)N(C)c1ncccn1)C1CCCCC1 [Compound 80] | < 10 nM | > 100 µM | < 1 h
CC[C@@H](NC(=O)N1C(=O)[C@H](Cc2ccnc(N)c2)[C@H]1C(=O)N(C)c1ncncn1)C1CCCCC1 [Compound 81] | < 10 nM | > 100 µM | < 1 h
CN(C(=O)[C@@H]1[C@@H](Cc2ccnc(N)c2)C(=O)N1C(=O)NC(c1ccccc1)c1ccccc1)c1ccncc1 [Compound 82] | < 10 nM | > 100 µM | 2.02 to 4 h
CC[C@@H](NC(=O)N1C(=O)[C@H](Cc2ccnc(N)c2)[C@H]1C(=O)N(C)c1ncncn1)c1ccccc1 [Compound 83] | < 10 nM | > 100 µM | < 1 h
CC[C@@H](NC(=O)N1C(=O)[C@H](Cc2ccnc(N)c2)[C@H]1C(=O)N(C)c1ncccn1)c1ccccc1 [Compound 84] | < 10 nM | > 100 µM | 1.02 to 2 h
CCC[C@@H](NC(=O)N1C(=O)[C@H](Cc2ccnc(N)c2)[C@H]1C(=O)N(C)c1ccncc1)c1ccccc1 [Compound 86] | < 10 nM | > 100 µM | > 4 h
CC[C@@H](NC(=O)N1C(=O)[C@H](Cc2ccnc(N)c2)[C@H]1C(=O)N(C)c1ccncc1)c1cccc(C)c1 [Compound 87] | < 10 nM | > 100 µM | 2.02 to 4 h
CC[C@@H](NC(=O)N1C(=O)[C@H](Cc2ccnc(N)c2)[C@H]1C(=O)N(C)c1ccncc1)c1ccc(Cl)cc1 [Compound 89] | < 10 nM | > 100 µM | > 4 h
CC[C@@H](NC(=O)N1C(=O)[C@H](Cc2ccnc(N)c2)[C@H]1C(=O)N(C)c1ccncc1)c1cccc(Cl)c1 [Compound 90] | < 10 nM | > 100 µM | 2.02 to 4 h
CC[C@@H](NC(=O)N1C(=O)[C@H](Cc2cc(C)nc(N)c2)[C@H]1C(=O)N(C)c1ccccc1)C1CCCCC1 [Compound 91] | < 10 nM | > 100 µM | 1.02 to 2 h
